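The compound was tested at five concentrations on cells cultured in 96-well plates, with a 48-hour exposure period. GI50: concentration for 50% inhibition of growth. TGI is the concentration that stops growth completely.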

We go through 9 compounds from PubChem BioAssay (NCI).

Some test systems named below: A549 NSCLC; CCRF-CEM leukemia; HOP-62 NSCLC; HT29 colon; M14 melanoma; OVCAR-3 ovarian; OVCAR-8 ovarian; RPMI-8226 leukemia; SNB-19 CNS; SW-620 colon.
Common to all, as to assay: NCI-60 cell line screen, 48 h

Consider `Cc1[nH]c(-c2nc3ccccc3[nH]2)c(C)c1C(=O)NC(C)C1CCCCC1` (stereo not given), for which the GI50 is 12.2 µM in the assay on A549 NSCLC; 5.49 µM in the assay on CCRF-CEM leukemia; 12.7 µM with HOP-62 NSCLC; 4.89 µM with HT29 colon; 3.28 µM in the assay with M14 melanoma; 9.72 µM in the assay on OVCAR-3 ovarian. Moreover, the GI50 in the assay on OVCAR-8 ovarian is 16.5 µM; in the assay with RPMI-8226 leukemia it was 4.35 µM; with SNB-19 CNS, 10.6 µM; in the assay on SW-620 colon, 4.95 µM. Besides, the TGI in the assay on A549 NSCLC is 34 µM; in the assay on CCRF-CEM leukemia, 21.4 µM; in the assay with HOP-62 NSCLC, 38.3 µM; with HT29 colon, 38.2 µM; in the assay with M14 melanoma it was 17.8 µM; in the assay with OVCAR-3 ovarian, 21.6 µM. Also, the TGI in the assay with OVCAR-8 ovarian turned out to be 39.5 µM; in the assay on RPMI-8226 leukemia, 17.7 µM; with SNB-19 CNS it was 24.8 µM; in the assay with SW-620 colon it was 18.3 µM.

For the compound `CCCCNC(=O)c1cc(NCc2cc(O)ccc2O)ccc1O`, the GI50 in the assay on A549 NSCLC is 21.9 µM; in the assay on CCRF-CEM leukemia it was 0.873 µM; in the assay with HOP-62 NSCLC, 71.8 µM; with HT29 colon, 21.5 µM; in the assay with M14 melanoma, 19.2 µM; in the assay with OVCAR-3 ovarian, 4.8 µM. The GI50 with OVCAR-8 ovarian was 18.1 µM; in the assay with RPMI-8226 leukemia it was 1.76 µM; in the assay on SNB-19 CNS, 41.4 µM; with SW-620 colon, 18.9 µM. For the same compound, the TGI in the assay on A549 NSCLC is 48.2 µM; with CCRF-CEM leukemia, 12.8 µM; in the assay on HOP-62 NSCLC, > 100 µM; with HT29 colon it was 46.8 µM; in the assay on M14 melanoma, 43.7 µM; in the assay on OVCAR-3 ovarian, 17.1 µM. In addition, the TGI is 68.8 µM in the assay on OVCAR-8 ovarian, 7.85 µM with RPMI-8226 leukemia, > 100 µM in the assay with SNB-19 CNS and 43.4 µM in the assay with SW-620 colon.

Regarding `COc1ccc2c(c1)CC1c3c(ccc(OC)c3O)CC2N1C` (stereo not given), the TGI in the assay with A549 NSCLC is > 100 µM; in the assay with CCRF-CEM leukemia it was 80.6 µM; in the assay with HOP-62 NSCLC, > 100 µM; with HT29 colon, 57.5 µM; with M14 melanoma, 32 µM; in the assay on OVCAR-3 ovarian it was > 100 µM. Moreover, the TGI was > 81.3 µM with OVCAR-8 ovarian, 53.2 µM in the assay with RPMI-8226 leukemia, > 100 µM in the assay with SNB-19 CNS and 45.4 µM with SW-620 colon.

For `CCOC(=O)c1oc2ccc([N+](=O)[O-])c3c2c1CCC3`, the TGI in the assay on A549 NSCLC was > 100 µM; in the assay on CCRF-CEM leukemia, > 100 µM; with HOP-62 NSCLC, 58.9 µM; in the assay with HT29 colon, > 100 µM; with M14 melanoma it was > 100 µM; in the assay on OVCAR-3 ovarian, > 100 µM. Further, the TGI was > 100 µM in the assay with OVCAR-8 ovarian, > 100 µM in the assay with RPMI-8226 leukemia, > 89.6 µM in the assay with SNB-19 CNS and > 100 µM in the assay with SW-620 colon.

As for `O=[n+]1c2ccccc2n([O-])c2cc(Cl)ccc21`, the GI50 in the assay on A549 NSCLC was 3.17 µM; with CCRF-CEM leukemia, 0.533 µM; in the assay with HOP-62 NSCLC, 3.15 µM; in the assay with HT29 colon, 3.6 µM; in the assay with M14 melanoma it was 10.7 µM; with OVCAR-3 ovarian, 3.48 µM. For the same compound, the GI50 is 3.5 µM in the assay with OVCAR-8 ovarian, 2.45 µM with RPMI-8226 leukemia, 9.46 µM in the assay with SNB-19 CNS and 3.73 µM with SW-620 colon. Also, the TGI in the assay with A549 NSCLC worked out at 22.9 µM; in the assay with CCRF-CEM leukemia it was 5 µM; in the assay with HOP-62 NSCLC, 10.9 µM; in the assay with HT29 colon, 13.5 µM; in the assay with M14 melanoma it was 29.9 µM; in the assay on OVCAR-3 ovarian, 12.3 µM. Also, the TGI in the assay on OVCAR-8 ovarian came to 15.4 µM; with RPMI-8226 leukemia it was 5.98 µM; in the assay with SNB-19 CNS it was 39.5 µM; with SW-620 colon it was 18.7 µM.

For the compound `O=c1c(NO)c([N+](=O)[O-])cnn1-c1ccccc1`, the TGI with A549 NSCLC came to 36.2 µM; in the assay with CCRF-CEM leukemia, 2.8 µM; with HOP-62 NSCLC, 23.1 µM; with HT29 colon, 6.14 µM; with M14 melanoma, 4.09 µM; in the assay on OVCAR-3 ovarian, 5.76 µM. Further, the TGI in the assay on OVCAR-8 ovarian came to 7.48 µM; with RPMI-8226 leukemia, 34 µM; with SNB-19 CNS it was 26.1 µM; in the assay with SW-620 colon, 3.73 µM.

Consider `COc1cc(N2CCN(C(C)C)CC2)ccc1Nc1nc(Nc2cccc(F)c2C(=O)O)c2cc[nH]c2n1`, for which the GI50 with A549 NSCLC, in the assay on CCRF-CEM leukemia, in the assay on HOP-62 NSCLC, in the assay with HT29 colon, with M14 melanoma and in the assay with OVCAR-3 ovarian was > 25 µM in each case. Besides, the GI50 in the assay with OVCAR-8 ovarian, in the assay with RPMI-8226 leukemia, in the assay on SNB-19 CNS and with SW-620 colon was > 25 µM in each case. The TGI in the assay on A549 NSCLC, with CCRF-CEM leukemia, with HOP-62 NSCLC, in the assay on HT29 colon, in the assay with M14 melanoma and in the assay on OVCAR-3 ovarian was > 25 µM each time. Further, the TGI in the assay on OVCAR-8 ovarian, in the assay with RPMI-8226 leukemia, with SNB-19 CNS and in the assay with SW-620 colon was > 25 µM throughout.

On to `CCN(CC)CCN(Cc1ccc(F)cc1)c1ccc(CO)c(Cl)c1`, for which the GI50 in the assay with A549 NSCLC is 2.42 µM; in the assay with CCRF-CEM leukemia, 61.7 µM; with HOP-62 NSCLC it was 9.84 µM; in the assay on HT29 colon it was 18.6 µM; in the assay on M14 melanoma, 17.2 µM; with OVCAR-3 ovarian, 14 µM. Besides, the GI50 in the assay with OVCAR-8 ovarian is 5.37 µM; in the assay with RPMI-8226 leukemia, 23.8 µM; in the assay on SNB-19 CNS, > 100 µM; with SW-620 colon, 31.5 µM. The TGI in the assay on A549 NSCLC was 12.8 µM; in the assay on CCRF-CEM leukemia it was > 100 µM; in the assay with HOP-62 NSCLC it was 63.3 µM; in the assay with HT29 colon, 69.4 µM; in the assay with M14 melanoma it was 35.2 µM; in the assay with OVCAR-3 ovarian, 35.9 µM. Moreover, the TGI with OVCAR-8 ovarian was 75.4 µM; with RPMI-8226 leukemia, 75.3 µM; in the assay with SNB-19 CNS, > 100 µM; with SW-620 colon it was > 100 µM.

As for `Cc1ccc(NC(=S)SCCC(=O)O)cc1`, the TGI in the assay on A549 NSCLC, with CCRF-CEM leukemia, with HOP-62 NSCLC, in the assay on HT29 colon, with M14 melanoma and in the assay on OVCAR-3 ovarian was > 100 µM in each case. Also, the TGI in the assay on OVCAR-8 ovarian, in the assay with RPMI-8226 leukemia, with SNB-19 CNS and with SW-620 colon was > 100 µM in each case.
